Laboratory results: patent US4564615A, “Immunoactivator” (SS Pharmaceutical Co., Ltd., priority 1980, dated 1986)
Structures can show the parent of a compound that is named as a salt.

Key:
Acute toxicity = settings: mouse, in vivo, ip; intraperitoneal, male mice, 7 days
Excerpt: Typical compounds used in the immunoactivator according to the invention were each suspended in physiological salt solution and intraperitoneally administered into groups of male mice, each consisting of 5 mice, followed by breeding and observing for 7 days.

[1] = system: antibody-producing cells in the spleen; assay: IgM antibody producing action in mice, time of administration (FIG. 1); assay type: in vivo, CDF1 mice (male, 12 weeks old)
Method: (ii) Groups of CDF1 mice (male, 12 weeks old), each group consisting of 5 mice, were each venously injected with 1×10^8 sheep red blood cells for immunization. The thus injected mice were each orally dosed with a compound of the invention (compound No. 3 in Table 1) at the same day as of the injection (0 day), 1 day, 2 days and 3 days after the injection in an amount of 100 μg/mouse. Four days after the immunization, the number of antibody-producing cells in the spleen cells of each mouse of each group was determined.

myeloid cells = assay: Action on production of glanulocytic macrophage colony (CFU-C) at myeloid cell culture; assay type: cell-based, mouse
Method: In accordance with the methods of Metcalf* and Stanley et al.**, the myeloid cells of mouse were cultured in soft agar to which a colony stimulating factor (CSF)*** and different amounts of a compound of the invention (Compound No. 3 in Table 1) to investigate the action on the glanulocytic macrophage colony.
**Stanley, E. R., M. Cifone, P. M. Heard & V. Deffendi: J. Exp. Med. 143: 631-647, 1976.
***The mouse serum obtained 6 hours after venous injection of 5 μg of LPS into CDF1 mouse was added in an amount of 0.0125 ml as the colony stimulating factor.

mouse's spleen cells = assay: Antibody-producing action based on cell culture (Mishell & Dutton), FIG. 2; settings: 0.005-20 μg/ml tested; 4 days culture with 1×10^6 sheep red blood cells
Excerpt: The action of a compound of the invention on the antibody-producing system with respect to sheep red blood cells was investigated on the basis of the mouse's spleen cell culture according to the Mishell & Dutton's method* and its modification**.
**Click, R. E., L. Benck & B. J. Alter: Cellular Immunol. 3: 156-160, 1972.

[2] = system: antibody-producing cells in the spleen; assay: IgM antibody producing action in mice, dose dependence (antibody-producing cells/spleen, SRBC immunization); assay type: in vivo, CDF1 mice (male, 10 weeks old); settings: oral; for Number of antibody-producing cells/spleen (average value): 4 days after administration
[3] = system: delayed-type hypersensitivity; assay: Action on delayed-type hypersensitivity (foot sole swelling, SRBC antigen); assay type: in vivo, CDF1 mice (male, 12 weeks old); settings: oral; for Thickness of Sole Swelling (± S.D.): 24 hours after second injection
Excerpt: In order to evaluate an action of compounds of the invention on cellular immunity which plays the most important role on the protection reaction against viral infection, the action was investigated according to the method of Lagrange et al.* using as an index the effect on the delayed-type hypersensitivity in which sheep red blood cells were provided as antigen**.
*Lagrange, P. H., G. B. Mackaness & T. E. Miller: J. Exp. Med., 139: 528-542, 1974.
**Ishizuka, M. T. Matsuda, N. Kanbayashi, S. Fukasawa, T. Takeuchi, T. Aoyagi & H. Umezawa: J. Antibiotics 33: 642-652, 1980.
That is, groups of CDF1 mice (male, 12 weeks old), each group consisting of 5 mice, were each immunized by being subcutaneously injected with 10^8 sheep red blood cells at the soles of right hind leg and were simultaneously orally dosed with 4 μg-1 mg/mouse of a compound of the invention (compound No. 3 in Table 1). Four days after the administration, 10^8 sheep red blood cells were subcutaneously injected into each mouse at the sole of the left hind leg, thereby causing the reaction. 24 hours after the injection, the thickness of the foot sole was measured and degrees of swelling of the soles were compared with one another to judge the action.

splenic cells = assay: Action on blastogenesis of splenic cells (3H-thymidine incorporation); assay type: cell-based, CDF1 mice (female, 10 weeks old)
Method: (1) The splenic cells of CDF1 mice (female, 10 weeks old) were collected and were cultured in a 10% foetal calf serum-added RPMI 1640 medium adding a lectin such as Concanavalin A (Con A) or Lipopolysaccharide (LPS) and a compound of the invention (Compound No. 3 in Table 1), and the blasting effect was determined using as an index incorporation of ^3 H-thymidine into the cultured splenic cells.
(2) The splenic cells of the mouse to which had been added different amounts of Con A or LPS and then 10 μg/ml of the inventive compound (Compound No. 3 in Table 3) were cultured to know the effect on the blasting reaction. […] Further, in order to know whichever lectin is greatly influenced by the compound of the invention for the potentiation, a stimulatory index* was calculated from the results of FIGS. 3a and 3b. […] [formula]

peritoneal macrophages = assay: Action on phagocytosis of peritoneal macrophage; assay type: in vivo, CDF1 mice (female, 8 weeks old); settings: for T/C (phagocytosis of macrophage): peritoneal injection
Method: The action of the inventive compound on the phagocytosis of macrophage was investigated.
CDF1 mice (female, 8 weeks old) were each peritoneally injected with 2 ml of a thioglycolate medium to allow the peritoneal macrophages to be released. Four days after the injection, a compound of the invention (Compound No. 3 in Table 1) was peritoneally injected into each mouse in an amount ranging from 1 μg to 1 mg/mouse. 18 hours after the injection, the mice of each group was peritoneally washed with the Dulbecco phosphate buffer solution to collect the peritoneal macrophages, which were then suspended in a serum-free Dulbecco phosphate buffer solution and the suspension was placed in plastic petri dishes, followed by keeping in a 5% carbonic acid gas culture container at 37° C. for 2 hours to obtain adhesive cells. To the respective petri dishes containing the adhesive cells was added a solution of a germ Saccharomyces cervisiae. After having kept the temperature for 30 minutes, the germ solution was removed, followed by culturing 4 hours, washing, and subjecting to the Giemsa staining. Then, the number of cells phagocytizing the germ were counted under microscope to determine the effect of the compound*.
*M. Ishizuka; S. Fukasawa, T. Masuda, J. Sato, N. Kanbayashi, T. Takeuchi & H. Umezawa; J. Antibiotics 32: 330-339, 1980.

[4] = Solubility in water of salts; assay type: physicochemical; settings: hydrochloride
[5] = Mus musculus, Macrophage, read-out: T/C (CFU-C)

## c1ccc(C2Oc3ccccc3C3SCCN23)cc1 (stereo not shown) [Compound No. 1]
Acute toxicity
  LD50 at 168 h: 500 mg/kg

## O=Cc1ccc(C2Oc3ccccc3C3SCCN23)cc1 (stereo not shown) [Compound No. 3, 4-(2,3-dihydro-5H,10bH-thiazolo[3,2-c][1,3]benzoxadine-5-yl)benzaldehyde]
[1]; 100 μg/mouse oral
  Time of administration after stimulation of antigen giving maximum potentiation: 1 to 2 days
[1]; 100 μg/mouse oral at day 0, 1, 2 or 3 after immunization
  Number of antibody-producing cells over non-administered groups (in words, FIG. 1): increased numbers of antibody-producing cells over the non-administered groups
Myeloid cells; 0.001 μg/ml
  Number of CFU-C (±S.D.): 140 ± 6
Myeloid cells; 0.01 μg/ml
  Number of CFU-C (±S.D.): 156 ± 9
Myeloid cells; 0.1 μg/ml
  Number of CFU-C (±S.D.): 189 ± 3
Myeloid cells; 1 μg/ml
  Number of CFU-C (±S.D.): 221 ± 6
Myeloid cells; 10 μg/ml
  Number of CFU-C (±S.D.): 144 ± 16
Myeloid cells; 0.1 to 1 μg/ml
  Production of CFU-C (in words): remarkably potentiate the production of CFU-C
Myeloid cells; [5]
  activity at 0.001 µg/mL: 103%
  activity at 0.01 µg/mL: 115%
  activity at 0.1 µg/mL: 139%
  activity at 1 µg/mL: 163%
  activity at 10 µg/mL: 106%
mouse's spleen cells
  Concentration range of significant potentiation of the antibody-producing action (FIG. 2): 0.3 to 5 µg/mL
[2]; 100-400 μg/mouse
  Antibody production (in words): potentiate the antibody production
[2]; 0.4 μg/mouse
  T/C (antibody-producing cells): 106%
  Number of antibody-producing cells/spleen (average value): 221,130
[2]; 1.6 μg/mouse
  T/C (antibody-producing cells): 104%
  Number of antibody-producing cells/spleen (average value): 217,890
[2]; 6.2 μg/mouse
  T/C (antibody-producing cells): 91%
  Number of antibody-producing cells/spleen (average value): 189,216
[2]; 25 μg/mouse
  T/C (antibody-producing cells): 84%
  Number of antibody-producing cells/spleen (average value): 176,040
[2]; 100 μg/mouse
  T/C (antibody-producing cells): 191%
  Number of antibody-producing cells/spleen (average value): 398,520
[2]; 400 μg/mouse
  T/C (antibody-producing cells): 148%
  Number of antibody-producing cells/spleen (average value): 308,610
[3]; 4 μg to 1 mg/mouse
  Delayed-type hypersensitivity vs non-administered control (in words): more pronounced potentiation on the delayed-type hypersensitivity than the non-administered control groups
[3]; 4 μg/mouse
  T/C (sole swelling): 231%
  Thickness of Sole Swelling (± S.D.): 14.8 ± 1.1 × 0.1 mm
[3]; 16 μg/mouse
  T/C (sole swelling): 150%
  Thickness of Sole Swelling (± S.D.): 9.6 ± 1.0 × 0.1 mm
[3]; 62 μg/mouse
  T/C (sole swelling): 181%
  Thickness of Sole Swelling (± S.D.): 11.6 ± 1.6 × 0.1 mm
[3]; 250 μg/mouse
  T/C (sole swelling): 198%
  Thickness of Sole Swelling (± S.D.): 12.7 ± 1.7 × 0.1 mm
[3]; 1000 μg/mouse
  T/C (sole swelling): 208%
  Thickness of Sole Swelling (± S.D.): 13.3 ± 1.3 × 0.1 mm
Splenic cells; 10 μg/ml compound, Con A or LSP 0.5-8 μg/ml
  Blasting reaction, FIGS. 3a and 3b (in words): potentiate the blasting reaction
Splenic cells; 10 μg/ml compound, calculated from FIGS. 3a and 3b
  Stimulatory index Con A vs LPS, FIG. 4 (in words): the Con A which is T-cell mitogen is more greatly acted with the compound than the LPS
Splenic cells; 10 μg/ml, Con A and LPS
  Blasting reaction caused by the lectins (in words): accelerate the blasting reaction caused by the lectins including either of Con A and LPS
Splenic cells; compound 5 μg/ml, Con A (0.5 μg/ml)
  3H-thymidine incorporation into splenic cells: 2131 cpm/culture
Splenic cells; compound 5 μg/ml, LSP (0.5 μ/ml)
  3H-thymidine incorporation into splenic cells: 1068 cpm/culture
Splenic cells; compound 5 μg/ml, no lectin
  3H-thymidine incorporation into splenic cells: 148 cpm/culture
Splenic cells; compound 10 μg/ml, Con A (0.5 μg/ml)
  3H-thymidine incorporation into splenic cells: 9982 cpm/culture
Splenic cells; compound 10 μg/ml, LSP (0.5 μ/ml)
  3H-thymidine incorporation into splenic cells: 4007 cpm/culture
Splenic cells; compound 10 μg/ml, no lectin
  3H-thymidine incorporation into splenic cells: 811 cpm/culture
Splenic cells; compound 20 μg/ml, Con A (0.5 μg/ml)
  3H-thymidine incorporation into splenic cells: 1267 cpm/culture
Splenic cells; compound 20 μg/ml, LSP (0.5 μ/ml)
  3H-thymidine incorporation into splenic cells: 665 cpm/culture
Splenic cells; compound 20 μg/ml, no lectin
  3H-thymidine incorporation into splenic cells: 105 cpm/culture
Splenic cells; culture free of any lectin
  Incorporation of 3H-thymidine without lectin (in words): more or less expedites the incorporation of ^3 H-thymidine into the splenic cells
Peritoneal macrophages; 1 μg-100 μg/mouse
  Phagocytosis of macrophage (in words): improve the phagocytosis of macrophage
Peritoneal macrophages; 1 μg/mouse
  T/C (phagocytosis of macrophage): 127%
Peritoneal macrophages; 10 μg/mouse
  T/C (phagocytosis of macrophage): 133%
Peritoneal macrophages; 100 μg/mouse
  T/C (phagocytosis of macrophage): 137%
Peritoneal macrophages; 1000 μg/mouse
  T/C (phagocytosis of macrophage): 115%

## O=Cc1ccc(C2Oc3ccccc3C3SCCN23)cc1 (stereo not shown) [hydrochloride of the compound No. 3, 4-(2,3-dihydro-5H,10bH-thiazolo[3,2-c][1,3]benzoxadine-5-yl)benzaldehyde (Compound No. 3) hydrochloride]
[4]
  Solubility in water or physiological salt solution (in words): soluble in water or physiological salt solution
